This note sets out measurements from ChEMBL document CHEMBL3865843, “Identification of Ligand Binding Hot Spots of the Histamine H1 Receptor following Structure-Based Fragment Optimization” (J Med Chem, 2016).

For test [1], the target named is Histamine H1 receptor (Homo sapiens, UniProt P35367). Put plainly: biochemical. The test is classed as cell-based, HEK-293T.
Test [2] can be described thus: Displacement of [3H]mepyramine from human N-terminal hemagglutinin-tagged histamine H1 receptor I454(7.39)T mutant expressed in HEK293T cells after 4 hrs by microbeta liquid scintillation counting analysis. It is filed as cell-based. Particulars: hek-293t. In general terms: In a radioligand displacement assay an active substance lowers the binding of a labelled ligand.

Test [3] can be described thus: Displacement of [3H]mepyramine from human N-terminal hemagglutinin-tagged histamine H1 receptor I454(7.39)F mutant expressed in HEK293T cells after 4 hrs by microbeta liquid scintillation counting analysis. The test is classed as cell-based. The following applies: hek-293t.

Histamine H1 receptor, sequence (P35367 whole entry): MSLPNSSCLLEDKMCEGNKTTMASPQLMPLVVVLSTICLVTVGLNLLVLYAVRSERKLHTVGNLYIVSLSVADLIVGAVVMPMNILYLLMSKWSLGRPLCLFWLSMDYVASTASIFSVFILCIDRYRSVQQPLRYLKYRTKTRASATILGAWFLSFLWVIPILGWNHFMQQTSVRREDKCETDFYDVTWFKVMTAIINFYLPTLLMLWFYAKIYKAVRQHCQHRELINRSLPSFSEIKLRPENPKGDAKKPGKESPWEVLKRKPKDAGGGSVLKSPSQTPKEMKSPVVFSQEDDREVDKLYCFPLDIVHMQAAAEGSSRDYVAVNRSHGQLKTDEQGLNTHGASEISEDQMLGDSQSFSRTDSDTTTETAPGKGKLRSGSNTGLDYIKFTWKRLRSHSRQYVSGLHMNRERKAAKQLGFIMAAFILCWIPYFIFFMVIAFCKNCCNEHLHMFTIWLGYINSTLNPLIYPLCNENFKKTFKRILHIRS

One may read the Ki as a measure of affinity in units of concentration, obtained from inhibition or displacement. Read a high Ki as weaker binding. In turn, `c1ccc(Cc2ccccc2OCCCN2CCCC2)cc1` had a Ki in test [1] of 10 nM.
Molecule `c1ccc(Cc2ccccc2OCCN2CCCCC2)cc1` had a Ki in test [1] of 25.1 nM.
The molecule `c1ccc(Cc2ccccc2OCCCN2CCCCC2)cc1` had an inhibitory constant (Ki) in test [1] of 12.6 nM.
Same read-out and setting: to `c1ccc(OC2CCNCC2)cc1` belongs 3980 nM; to `CN1CCC(Oc2ccccc2Cc2ccc(Cl)cc2)CC1`, 2.51 nM.
As a reminder, the pKi is the negative decadic logarithm of the Ki, by convention in mol/L. A high value points to a small Ki. Turning to `CN1CCC(Oc2ccccc2Cc2ccccc2)CC1.O=C(O)/C=C/C(=O)O`, the figures for the pKi in test [2] and in test [3] were 8.3 and 8.2, respectively.
For the molecule `Clc1ccc(Cc2ccccc2OC2CCNCC2)cc1`, in test [1], the affinity, expressed as Ki, was 6.31 nM.
Same read-out and setting: to `c1ccc(Cc2cccc(OC3CCNCC3)c2)cc1` belongs 1580 nM; to `NCCOc1ccccc1Cc1ccccc1`, 1580 nM; to `c1ccc(-c2ccccc2OC2CCNCC2)cc1`, 316 nM.
The same measure, in the same setting: to `CN(C)CCOc1ccccc1Cc1ccccc1` belongs 12.6 nM.
On the same count and under the same terms, to `c1ccc(Cc2ccccc2OCCN2CCCCCC2)cc1` belongs 63.1 nM.
As for `C[N+]1(C)CCC(Oc2ccccc2Cc2ccccc2)CC1`, the affinity in test [1], expressed as Ki, was 25.1 nM. This Ki lies about 2.5-fold lower than the previous one.
As to `CNCCOc1ccccc1Cc1ccccc1`, the inhibition constant (Ki) in test [1] was 100 nM.
The molecule `CN(C)CCCOc1ccccc1Cc1ccccc1` gave an inhibition constant Ki in test [1] of 3.16 nM.
In test [1], `c1ccc(Cc2ccccc2OCCN2CCC2)cc1` had a Ki of 6.31 nM.
On to `c1ccc(Cc2ccc(OC3CCNCC3)cc2)cc1`, for which, in test [1], the Ki is 10000 nM.
Still for that read-out and setting: to `CNCCCOc1ccccc1Cc1ccccc1` belongs 31.6 nM; to `c1ccc(Cc2ccccc2OCCCN2CCCCCC2)cc1`, 20 nM.
Turning to `O=C(O)/C=C/C(=O)O.c1ccc(Cc2ccccc2OC2CCNCC2)cc1`, the negative logarithm of the Ki (pKi) in test [2] was 8; in test [3], 7.4. For the same molecule, the affinity in test [1] corresponds to a Ki of 15.8 nM.
Turning to `NCCCOc1ccccc1Cc1ccccc1`, in test [1], the Ki is 316 nM.
Same read-out and setting: to `CN1CCC(Oc2ccccc2)CC1` belongs 251 nM.
Still for that read-out and setting: the figure for `c1ccc(Cc2ccccc2OCCCN2CCC2)cc1` is 7.94 nM; for `c1ccc(Cc2ccccc2OCCN2CCCC2)cc1` it is 15.8 nM.
